Source: publication PMC9318203, “Squaramide-Tethered Sulfonamides and Coumarins: Synthesis, Inhibition of Tumor-Associated CAs IX and XII and Docking Simulations” (International Journal of Molecular Sciences, 2022)
“And” between values parts separate entries of the source, which are not always exact repeats. Equal values may be shown once.

What was measured:
hCA II = biological target: T1, hCA II (Homo sapiens, UniProt P00918); assay: stopped-flow CO2 hydrase assay, hCA II; assay type: biochemical
T1 construct: made in house
Experimental: (§1) For that purpose, the stopped-flow CO2 hydration assay was used (Table 1).
(§2) The inhibitory properties of title compounds against CAs were determined using the stopped-flow CO2 hydrase assay, as previously reported.

hCA I = biological target: T2, hCA I (Homo sapiens, UniProt P00915); assay: stopped-flow CO2 hydrase assay, hCA I; assay type: biochemical
T2 construct: made in house
Experimental: as §1, §2

hCA XII = biological target: T3, hCA XII (Homo sapiens, UniProt O43570); assay: stopped-flow CO2 hydrase assay, hCA XII; assay type: biochemical; conditions: for S.I. I/XII: Ki (CA I)/Ki (CA XII); for S.I. II/XII: Ki (CA II)/Ki (CA XII)
T3 construct: made in house
Experimental: as §1, §2

hCA IX = biological target: T4, hCA IX (Homo sapiens, UniProt Q16790); assay: stopped-flow CO2 hydrase assay, hCA IX; assay type: biochemical; conditions: for S.I. I/IX: Ki (CA I)/Ki (CA IX); for S.I. II/IX: Ki (CA II)/Ki (CA IX)
T4 construct: made in house
Experimental: as §1, §2

[1] = sulfonamido-containing squaramides, mean from 3 assays, stopped flow
[2] = coumarin-containing squaramides, incubation time 6 h, mean from three assays

T2 sequence (P00915 whole entry): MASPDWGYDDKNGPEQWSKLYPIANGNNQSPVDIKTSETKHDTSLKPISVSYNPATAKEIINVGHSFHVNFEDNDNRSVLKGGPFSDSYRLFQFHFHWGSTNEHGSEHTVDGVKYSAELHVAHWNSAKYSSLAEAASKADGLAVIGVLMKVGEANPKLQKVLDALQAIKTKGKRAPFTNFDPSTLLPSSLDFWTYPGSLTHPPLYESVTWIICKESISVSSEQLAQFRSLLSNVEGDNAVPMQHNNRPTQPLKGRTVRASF
T3 sequence (O43570 25-354): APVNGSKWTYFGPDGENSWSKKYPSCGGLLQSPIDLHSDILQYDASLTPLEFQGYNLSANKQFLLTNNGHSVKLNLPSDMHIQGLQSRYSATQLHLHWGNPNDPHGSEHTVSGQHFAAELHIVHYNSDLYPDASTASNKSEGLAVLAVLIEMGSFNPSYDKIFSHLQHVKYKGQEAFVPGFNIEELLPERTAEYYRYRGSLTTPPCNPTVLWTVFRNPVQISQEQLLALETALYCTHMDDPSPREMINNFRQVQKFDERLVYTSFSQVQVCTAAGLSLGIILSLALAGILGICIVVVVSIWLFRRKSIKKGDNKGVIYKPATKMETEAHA

| melting point [°C] | Ki (hCA II; [1]) [µM] | Ki (hCA I; [1]) [µM] | S.I. I/XII (hCA XII) | S.I. II/XII (hCA XII) | Ki (hCA XII; [1]) | S.I. I/IX (hCA IX) | S.I. II/IX (hCA IX) | Ki (hCA IX; [1]) [µM] | S.I. (range of the selectivity indexes) (hCA IX; range over I/IX, I/XII, II/IX, II/XII) | Ki (hCA II; [2]) [µM] | Ki (hCA I; [2]) [µM] | Ki (hCA XII; [2]) [µM] | Ki (hCA IX; [2]) [µM] | fold decreased activity compared with 16b, CA XII (hCA XII; vs 16b) | fold decreased activity compared with 16b, CA IX (hCA IX; vs 16b) | SMILES |
| --- | --- | --- | --- | --- | --- | --- | --- | --- | --- | --- | --- | --- | --- | --- | --- | --- |
| > 250 | 0.72 | 0.211 | 2.2 | 7.4 | 0.0968 µM | 2.8 | 9.6 | 0.0753 |  |  |  |  |  |  |  | NS(=O)(=O)c1ccc(CCNc2c(Nc3ccccc3)c(=O)c2=O)cc1 [Compound 5a, 3-Phenylamino-4-[2′-(4″-sulfonamidophenyl)ethylamino]cyclobut-3-ene-1,2-dione] |
| > 250 | 0.724 | 0.373 | 2.4 | 4.6 | 0.158 µM | 4.0 | 7.8 | 0.0925 |  |  |  |  |  |  |  | COc1ccc(Nc2c(NCCc3ccc(S(N)(=O)=O)cc3)c(=O)c2=O)cc1 [Compound 5b, 3-(p-Methoxyphenyl)amino-4-[2′-(4″-sulfonamidophenyl)ethylamino]cyclobut-3-ene-1,2-dione] |
| > 250 | 0.819 | 0.881 | 9.8 | 9.1 | 0.0902 µM | 1.8 | 1.7 | 0.49 |  |  |  |  |  |  |  | NS(=O)(=O)c1ccc(CCNc2c(Nc3ccc(Cl)cc3)c(=O)c2=O)cc1 [Compound 5c, 3-(p-Chlorophenyl)amino-4-[2′-(4″-sulfonamidophenyl)ethylamino]cyclobut-3-ene-1,2-dione] |
| > 250 | 0.91 | 0.457 | 5.3 | 11 | 0.0855 µM | 6.8 | 14 | 0.0676 | 6.8–14 |  |  |  |  |  |  | NS(=O)(=O)c1ccc(CCNc2c(Nc3ccc(Br)cc3)c(=O)c2=O)cc1 [Compound 5d, 3-(p-Bromophenyl)amino-4-[2′-(4″-sulfonamidophenyl)ethylamino]cyclobut-3-ene-1,2-dione] |
| > 250 | 0.856 | 0.471 | 5.2 | 9.5 | 0.0903 µM | 5.1 | 9.2 | 0.0927 |  |  |  |  |  |  |  | NS(=O)(=O)c1ccc(CCNc2c(Nc3ccc(I)cc3)c(=O)c2=O)cc1 [Compound 5e, 3-(p-Iodophenyl)amino-4-[2′-(4″-sulfonamidophenyl)ethylamino]cyclobut-3-ene-1,2-dione] |
| > 250 | 0.0659 | 0.098 | 15 | 10 | 0.00657 µM | 5.0 | 3.4 | 0.0195 |  |  |  |  |  |  |  | NS(=O)(=O)c1ccc(Nc2c(Nc3ccccc3)c(=O)c2=O)cc1 [Compound 8, 3-Phenylamino-4-[4′-(sulfonamidophenyl)]aminocyclobut-3-ene-1,2-dione] |
|  | 0.0409 | 0.0799 | 14 | 7.1 | 0.00578 µM | 3.0 | 1.6 | 0.0262 |  |  |  |  |  |  |  | COc1c(Nc2cccc(S(N)(=O)=O)c2)c(=O)c1=O [Compound 10, 3-Methoxy-4-[3′-(sulfonamidophenyl)]aminocyclobut-3-ene-1,2-dione] |
|  | 0.0955 | 0.58 | 63 | 10 | 0.0095 µM and 0.00915 µM | 20 | 3.2 | 0.0294 |  |  |  |  |  |  |  | NS(=O)(=O)c1cccc(Nc2c(Nc3ccccc3)c(=O)c2=O)c1 [Compound 11] |
| > 250 |  |  |  |  |  |  |  |  |  | > 10 | > 10 | 0.0421 | 0.0793 |  |  | Cc1cc(=O)oc2cc(OCCCNc3c(Nc4ccccc4)c(=O)c3=O)ccc12 [Compound 16a, 3-{[3′-((4″-Methyl-2″-oxo-2″H-chromen-7″-yl)oxy)propyl]amino}-4-phenylaminocyclobut-3-ene-1,2-dione] |
| 200 to 201 |  |  |  |  |  |  |  |  |  | > 10 | > 10 | 0.00723 | 0.0192 |  |  | Cc1cc(=O)oc2cc(OCCCCCCCCCNc3c(Nc4ccccc4)c(=O)c3=O)ccc12 [Compound 16c, 3-{[9′-((4″-Methyl-2″-oxo-2″H-chromen-7″-yl)oxy)nonyl]amino}-4-phenylaminocyclobut-3-ene-1,2-dione] |
| 178 to 179 |  |  |  |  |  |  |  |  |  | > 10 | > 10 | 0.00791 | 0.0181 |  |  | Cc1cc(=O)oc2cc(OCCCCCCCCCCCCNc3c(Nc4ccccc4)c(=O)c3=O)ccc12 [Compound 16d, 3-{[12′-((4″-Methyl-2″-oxo-2″H-chromen-7″-yl)oxy)dodecyl]amino}-4-phenylaminocyclobut-3-ene-1,2-dione] |
| 225 to 227 |  |  |  |  |  |  |  |  |  | > 10 | > 10 | 0.0244 | 0.0653 |  |  | Cc1cc(=O)oc2cc(OCCCCCNc3c(Nc4ccc(Cl)cc4)c(=O)c3=O)ccc12 [Compound 16g, 3-[(4′-Chlorophenyl)amino]-4-{[5″-(4‴-methyl-2‴-oxo-2‴H-chromen-7‴-yl)oxypentyl]amino}cyclobut-3-ene-1,2-dione] |
| 248 to 249 |  |  |  |  |  |  |  |  |  | > 10 | > 10 | 0.0139 | 0.0462 |  |  | Cc1cc(=O)oc2cc(OCCCCCNc3c(Nc4ccc(Br)cc4)c(=O)c3=O)ccc12 [Compound 16h, 3-[(4′-Bromophenyl)amino]-4-{[5″-(4‴-methyl-2‴-oxo-2‴H-chromen-7‴-yl)oxypentyl]amino}cyclobut-3-ene-1,2-dione] |
| > 250 |  |  |  |  |  |  |  |  |  | > 10 | > 10 | 0.0215 | 0.057 |  |  | Cc1cc(=O)oc2cc(OCCCCCNc3c(Nc4ccc(I)cc4)c(=O)c3=O)ccc12 [Compound 16i, 3-[(4′-Iodophenyl)amino]-4-{[5″-(4‴-methyl-2‴-oxo-2‴H-chromen-7‴-yl)oxypentyl]amino}cyclobut-3-ene-1,2-dione] |
| > 250 |  |  |  |  |  |  |  |  |  | > 10 | > 10 | 0.0583 | 0.107 |  |  | Cc1c(C)c2ccc(OCCCCCNc3c(Nc4ccccc4)c(=O)c3=O)cc2oc1=O [Compound 16j, 3-{[5′-((3″,4″-Dimethyl-2″-oxo-2″H-chromen-7″-yl)oxy)pentyl]amino}-4-phenylaminocyclobut-3-ene-1,2-dione] |
| > 250 |  |  |  |  |  |  |  |  |  | > 10 | > 10 | 0.0454 | 0.0865 |  |  | COc1ccc(Nc2c(NCCCCCOc3ccc4c(C)c(C)c(=O)oc4c3)c(=O)c2=O)cc1 [Compound 16k, 3-{[5′-(3″,4″-Dimethyl-2″-oxo-2″H-chromen-7″-yl)oxypentyl]amino}-4-(4‴-methoxyphenylamino)cyclobut-3-ene-1,2-dione] |
| > 250 |  |  |  |  |  |  |  |  |  | > 10 | > 10 | 0.0629 | 0.113 |  |  | Cc1c(C)c2ccc(OCCCCCNc3c(Nc4ccc(F)cc4)c(=O)c3=O)cc2oc1=O [Compound 16l, 3-{[5′-(3″,4″-Dimethyl-2″-oxo-2″H-chromen-7″-yl)oxypentyl]amino}-4-(4‴-fluorophenylamino)cyclobut-3-ene-1,2-dione] |
| > 250 |  |  |  |  |  |  |  |  |  | > 10 | > 10 | 0.043 | 0.0966 |  |  | Cc1c(C)c2ccc(OCCCCCNc3c(Nc4ccc(Cl)cc4)c(=O)c3=O)cc2oc1=O [Compound 16m, 3-[(4′-Chlorophenyl)amino]-4-{[5″-(3‴,4‴-dimethyl-2‴-oxo-2‴H-chromen-7‴-yl)oxypentyl]amino}cyclobut-3-ene-1,2-dione] |
|  |  |  |  |  |  |  |  |  |  | > 10 | > 10 | 0.0696 | 0.132 |  |  | Cc1c(C)c2ccc(OCCCCCNc3c(Nc4ccc(Br)cc4)c(=O)c3=O)cc2oc1=O [Compound 16n, 3-[(4′-Bromophenyl)amino]-4-{[5″-(3‴,4‴-dimethyl-2‴-oxo-2‴H-chromen-7″-yl)oxypentyl]amino}cyclobut-3-ene-1,2-dione] |
| > 250 |  |  |  |  |  |  |  |  |  | > 10 | > 10 | 0.0508 | 0.0921 |  |  | Cc1c(C)c2ccc(OCCCCCNc3c(Nc4ccc(I)cc4)c(=O)c3=O)cc2oc1=O [Compound 16o, 3-{[5′-(3″,4″-Dimethyl-2″-oxo-2″H-chromen-7″-yl)oxypentyl]amino}-4-(4‴-iodophenylamino)cyclobut-3-ene-1,2-dione] |
| 209 to 210 |  |  |  |  |  |  |  |  |  | > 10 | > 10 | 0.0879 | 0.267 | roughly 6.1 fold | roughly 6.1 fold | O=c1cc(-c2ccccc2)c2ccc(OCCCCCNc3c(Nc4ccccc4)c(=O)c3=O)cc2o1 [Compound 16p, 3-Phenylamino-4-{[5′-(4″-Phenyl-2″-oxo-2″H-chromen-7″-yl)oxypentyl]amino}cyclobut-3-ene-1,2-dione] |
